In PubChem BioAssay (NCI):
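Where inhibition never reached the appropriate level, the endpoint shown equals the highest concentration tested. Otherwise, values were interpolated linearly from a five-concentration, 48-hour dose response in 96-well plates. TGI marks complete inhibition of growth.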

What was measured:
Assay in all cases: inhibition of tumour cell growth, NCI panel, 48 h
CAKI-1 renal = tested on: CAKI-1 renal
PC-3 prostate = tested on: PC-3 prostate
SF-268 CNS = tested on: SF-268 CNS
IGROV1 ovarian = tested on: IGROV1 ovarian
SF-539 CNS = tested on: SF-539 CNS
K-562 leukemia = tested on: K-562 leukemia
RXF 393 renal = tested on: RXF 393 renal
U251 CNS = tested on: U251 CNS
UACC-257 melanoma = tested on: UACC-257 melanoma
HCC-2998 colon = tested on: HCC-2998 colon

Compound	TGI (CAKI-1 renal)	TGI (PC-3 prostate)	TGI (SF-268 CNS)	TGI (IGROV1 ovarian)	TGI (SF-539 CNS)	TGI (K-562 leukemia)	TGI (RXF 393 renal)	TGI (U251 CNS)	TGI (UACC-257 melanoma)	TGI (HCC-2998 colon)
Cn1c(=O)c2c(nc3n(CC(O)CCl)c(=O)ccn23)n(C)c1=O (stereo not given)	66.2 µM	> 100 µM	> 100 µM	> 100 µM	> 100 µM	> 100 µM	> 100 µM	> 100 µM	> 100 µM	> 100 µM
COc1ccc2c(c1)C(=O)CC1c3cnccc3C(=O)N21 (stereo not given)	> 100 µM	> 100 µM	> 100 µM	> 100 µM	> 100 µM	> 100 µM	> 100 µM	> 100 µM	> 100 µM	> 100 µM
O=[N+]([O-])c1ccccc1OCCOc1ccccc1[N+](=O)[O-]	> 100 µM	> 100 µM	> 100 µM	> 100 µM	> 100 µM	> 100 µM	> 100 µM	> 100 µM	> 100 µM	> 100 µM
CC(=O)O[C@H]1CC(C)(C)C(=C=C/C(C)=C/C=C/C=C/C=C(C)/C=C2C=C(/C=C/[C@@]34O[C@]3(C)C[C@@H](O)CC4(C)C)C(=O)O/2)[C@](C)(O)C1	98.1 µM	15.9 µM	43.6 µM	7.72 µM	38 µM	57.2 µM	20.5 µM	> 100 µM	51.5 µM	> 100 µM
O=C(Nc1ccc(N2C(=O)CSC2c2ccccc2O)cc1)c1ccc(N2C(=O)CSC2c2ccccc2O)cc1 (stereo not given)	> 100 µM	> 100 µM	> 100 µM	> 100 µM	> 100 µM	> 100 µM	> 100 µM	> 100 µM	> 100 µM	> 100 µM
O=c1[nH]cc(NCCCl)c(=O)[nH]1	> 100 µM	> 100 µM	> 100 µM	> 100 µM	> 100 µM	> 100 µM	> 100 µM	> 100 µM	> 100 µM	> 100 µM
Oc1cc(Cc2ccccc2)c(Cc2ccccc2)cc1O	> 10 µM	> 10 µM	> 10 µM	> 10 µM	> 10 µM	> 10 µM	> 10 µM	> 10 µM	> 10 µM	> 10 µM
COC(=O)C1=C(O)C(C(=O)OC)C2CC(=O)CC1C2(C)C (stereo not given)	> 100 µM	> 100 µM	> 100 µM	> 100 µM	> 100 µM	> 100 µM	> 100 µM	> 100 µM	> 100 µM	> 100 µM
CC(C)(C)c1ccc(OCCOc2ccc(C(C)(C)C)cc2N)c(N)c1	> 100 µM	> 100 µM	> 100 µM	> 100 µM	> 100 µM	> 100 µM	> 100 µM	> 100 µM	> 100 µM	> 100 µM
O=C1c2cccc([N+](=O)[O-])c2C(=O)N1Cc1ccccc1	> 100 µM	> 100 µM	> 100 µM	> 100 µM	> 100 µM	> 100 µM	> 100 µM	> 100 µM	> 100 µM	> 100 µM
C=CCSC1=N/C(=C\c2ccc(Cl)cc2)C(=O)N1CC=C	> 100 µM	54.2 µM	> 100 µM	> 100 µM	> 100 µM	> 100 µM	45.3 µM	64.6 µM	76.7 µM	> 100 µM
CCN(CCCOc1ccccc1)CCN(CC)CCCOc1ccccc1	34 µM	5.14 µM	28.4 µM	23.5 µM	24.7 µM	15.5 µM	38.5 µM	27.5 µM	31.5 µM	48.4 µM
c1ccc(/C(=N/Nc2nc3ccccc3s2)C2CCCCC2)nc1	21.6 µM	24.3 µM	25 µM	16.5 µM	27.5 µM	70 µM	24.8 µM	35.9 µM	17.5 µM	0.0519 µM
C[C@@]1(O)C2CC3CC1(c1ccccc1)CC(/C3=N/O)/C2=N\O (stereo not given in full)	> 100 µM	> 100 µM	> 100 µM	> 100 µM	> 100 µM	> 100 µM	> 100 µM	> 100 µM	> 100 µM	> 100 µM
CC(C)(C)c1ccccc1N1C(=O)c2ccc3c4c(ccc(c24)C1=O)N(c1ccccc1C(C)(C)C)C3=O	> 100 µM	> 100 µM	> 100 µM	> 100 µM	> 100 µM	> 100 µM	> 100 µM	> 100 µM	> 100 µM	> 100 µM
